Measured values taken from US8492520B2, “Binding epitopes for G250 antibody” (Wilex AG, priority 2007, dated 2013).

Test system: G250 antibody
Assay: conformational epitope mapping of carbonic anhydrase IX peptide sections on scaffolds, binding to G250 antibody
Details: core sequences shared by the best-binding peptides
Experimental: Short peptide sections of CA-IX which bind to the G250 antibody were determined by means of conformational epitope mapping of carbonic anhydrase using the scaffolds shown in FIG. 2. The following 15 sequences were identified as peptide sections having the highest binding capacity: […]

In the case of LSTAFARV [SEQ ID NO:1], the “recognition by G250 antibody (rank of epitope sequence)” value is reported as “dominantly recognized”.
